Patent US8637511B2, “Aminopyrimidines useful as kinase inhibitors” (Vertex Pharmaceuticals Incorporated, priority 2005, dated 2014)
“And” between values parts separate entries of the source, which are not always exact repeats. Equal entries are not always repeated. Where two headings read alike, the source gives them in different places.

How the values were obtained:
Aurora-2 (Aurora A) = biological target: T1, Aurora-2 (Aurora A) (Homo sapiens, UniProt O14965); test: Aurora-2 (Aurora A) inhibition assay, coupled enzyme; assay type: biochemical; details: read-out: Aurora A kinase Ki value
T1 sequence (O14965 1-403): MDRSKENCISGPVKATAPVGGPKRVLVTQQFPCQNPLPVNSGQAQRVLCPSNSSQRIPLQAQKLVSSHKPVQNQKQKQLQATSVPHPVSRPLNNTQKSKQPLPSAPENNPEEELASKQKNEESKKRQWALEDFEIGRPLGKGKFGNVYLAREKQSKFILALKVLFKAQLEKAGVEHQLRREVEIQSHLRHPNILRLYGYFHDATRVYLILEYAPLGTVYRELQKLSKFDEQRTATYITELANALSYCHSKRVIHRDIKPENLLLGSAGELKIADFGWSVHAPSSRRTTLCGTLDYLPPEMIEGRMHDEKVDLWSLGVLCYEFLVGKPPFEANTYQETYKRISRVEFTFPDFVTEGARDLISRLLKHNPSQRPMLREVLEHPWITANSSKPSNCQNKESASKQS
Description: Assays were carried out in a mixture of 100 mM Hepes (pH7.5), 10 mM MgCl2, 1 mM DTT, 25 mM NaCl, 2.5 mM phosphoenolpyruvate, 300 μM NADH, 30 μg/ml pyruvate kinase and 10 μg/ml lactate dehydrogenase. […] Assays were carried out at 30° C. and in the presence of 40 nM Aurora-2.
The plate was preincubated for 10 minutes at 30° C. and the reaction initiated by addition of 10 μl of Aurora-2. Initial reaction rates were determined with a Molecular Devices SpectraMax Plus plate reader over a 10 minute time course. IC50 and Ki data were calculated from non-linear regression analysis using the Prism software package (GraphPad Prism version 3.0cx for Macintosh, GraphPad Software, San Diego Calif., USA).

Aurora-1 (Aurora B) = Aurora-1 (Aurora B) (Homo sapiens, UniProt Q96GD4); test: Aurora-1 (Aurora B) inhibition assay (radiometric); assay type: biochemical; details: read-out: Aurora B kinase Ki value
Description: An assay buffer solution was prepared which consisted of 25 mM HEPES (pH 7.5), 10 mM MgCl2, 0.1% BSA and 10% glycerol. […] To 22 μL of the Aurora-B solution, in a 96-well plate, was added 2 μl of a compound stock solution in DMSO and the mixture allowed to equilibrate for 10 minutes at 25° C. The enzyme reaction was initiated by the addition of 16 μl stock [γ-^33P]-ATP solution (˜20 nCi/μL) prepared in assay buffer, to a final assay concentration of 800 μM. The reaction was stopped after 3 hours by the addition of 16 μL 500 mM phosphoric acid and the levels of ^33P incorporation into the peptide substrate were determined by the following method.
A phosphocellulose 96-well plate (Millipore, Cat no. MAPHNOB50) was pre-treated with 100 μL of a 100 mM phosphoric acid prior to the addition of the enzyme reaction mixture (40 μL). The solution was left to soak on to the phosphocellulose membrane for 30 minutes and the plate subsequently washed four times with 200 μL of a 100 mM phosphoric acid. […] Levels of non-enzyme catalyzed background radioactivity were determined by adding 16 μL of the 500 mM phosphoric acid to control wells, containing all assay components (which acts to denature the enzyme), prior to the addition of the [γ-^33P]-ATP solution. Levels of enzyme catalyzed. ^33P incorporation were calculated by subtracting mean background counts from those measured at each inhibitor concentration. […] Ki values were calculated from initial rate data by non-linear regression using the Prism software package (Prism 3.0, Graphpad Software, San Diego, Calif.).

Colo205 cells = test: Analysis of cell proliferation and viability; assay type: cell-based; details: Homo sapiens, COLO 205, Colo205 cells, read-out: IC50 value
Description: Colo205 cells were seeded in 96 well plates and serially diluted compound was added to the wells in duplicate. Control groups included untreated cells, the compound diluent (0.1% DMSO alone) and culture medium without cells.
To measure proliferation, 3 h prior to the end of the experiment 0.5 μCi of 3H thymidine was added to each well. Cells were then harvested and the incorporated radioactivity counted on a Wallac microplate beta-counter. Cell viability was assessed using Promega CellTiter 96AQ to measure MTS conversion. Dose response curves were calculated using either Prism 3.0 (GraphPad) or SoftMax Pro 4.3.1 LS (Molecular Devices) software.

Sequence of Aurora-1 (Aurora B) (Q96GD4 whole entry): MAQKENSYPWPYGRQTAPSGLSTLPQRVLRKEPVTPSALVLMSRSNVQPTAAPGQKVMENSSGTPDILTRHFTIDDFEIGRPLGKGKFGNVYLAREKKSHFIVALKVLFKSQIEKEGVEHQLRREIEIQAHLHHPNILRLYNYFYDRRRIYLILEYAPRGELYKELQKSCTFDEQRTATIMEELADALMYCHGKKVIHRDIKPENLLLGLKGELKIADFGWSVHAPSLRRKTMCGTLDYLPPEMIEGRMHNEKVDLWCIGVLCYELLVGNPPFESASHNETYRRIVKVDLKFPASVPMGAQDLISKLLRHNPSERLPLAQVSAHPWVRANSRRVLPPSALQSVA

Structure (SMILES) | Ki (Aurora-2 (Aurora A)) | Ki (Aurora-1 (Aurora B)) | IC50 (Colo205 cells; incubated for 72 hours) | IC50 (Colo205 cells; incubated for 96 hours)
CCOP(=O)(O)OC1(C)CN(c2cc(Nc3cc(C)n[nH]3)nc(Sc3ccc(NC(=O)c4ccccc4C(F)(F)F)cc3)n2)C1 [Compound 129] | ≤ 1 nM | ≤ 10 nM | > 200 nM | –
Cc1cc(Nc2cc(N3CC(F)(F)C3)nc(Sc3ccc(NC(=O)CC(F)(F)F)cc3)n2)[nH]n1 [Compound 130] | 1 to 5 nM | 10 to 50 nM and < 25 nM | 30 to 200 nM | –
Cc1cc(Nc2cc(N3CC(O)(C4CC4)C3)nc(Sc3ccc(N4CCCC4=O)cc3)n2)n[nH]1 [Compound 133] | ≤ 1 nM | 10 to 50 nM and < 25 nM | ≤ 30 nM | –
CCC(Nc1ccc(Sc2nc(Nc3cc(C)n[nH]3)cc(N3CC(O)(C4CC4)C3)n2)cc1)C(F)(F)F (stereo not shown) [Compound 136] | ≤ 1 nM | 50 to 2000 nM | > 200 nM | –
CCOc1ccc(Sc2nc(Nc3cc(C)n[nH]3)cc(N3CC(C(=O)N4CCCC4)C3)n2)cc1 [Compound 141] | 1 to 5 nM | 50 to 2000 nM | > 200 nM | –
Cc1cc(Nc2cc(N3CC(O)(C4CC4)C3)nc(Sc3ccc4nc(C)ccc4c3)n2)[nH]n1 [Compound 153] | ≤ 1 nM | ≤ 10 nM | – | ≤ 50 nM
Cc1cc(Nc2cc(N3CC(F)(C4CC4)C3)nc(Sc3ccc4nc(C)ccc4c3)n2)[nH]n1 [Compound 154] | ≤ 1 nM | 10 to 50 nM and < 25 nM | – | 50 to 1000 nM
Cc1cc(Nc2cc(N3CC(F)(C4CC4)C3)nc(Sc3ccc4c(c3)N(C)C(C(F)(F)F)N4)n2)[nH]n1 (stereo not shown) [Compound 156] | ≤ 1 nM | 10 to 50 nM and < 25 nM | 30 to 200 nM | 50 to 1000 nM
Cc1cc(Nc2cc(N3CC(F)(C4CC4)C3)nc(Sc3ccc4nc(CC(F)(F)F)n(C)c4c3)n2)[nH]n1 [Compound 187] | ≤ 1 nM | ≤ 10 nM | ≤ 30 nM | –
CCC1(F)CN(c2cc(Nc3cc(C)n[nH]3)nc(Sc3ccc(NC(=O)CC(F)(F)F)cc3)n2)C1 [Compound 196] | ≤ 1 nM | ≤ 10 nM | ≤ 30 nM | –
CCC(=O)Nc1ccc(Sc2nc(CCN3CCC3)cc(Nc3cc(C)n[nH]3)n2)cc1 [Compound 197] | 5 to 200 nM | 50 to 2000 nM | > 200 nM | –
Cc1cc(Nc2cc(N3CCC3)nc(Sc3ccc(NC(=O)c4ncccc4C)cc3)n2)[nH]n1 [Compound 200] | 5 to 200 nM | 50 to 2000 nM | > 200 nM | –
CC(=O)Nc1ccc(Nc2nc(Nc3cc(C)n[nH]3)cc(N3CC(F)(C4CC4)C3)n2)cc1 [Compound 201] | 5 to 200 nM | 50 to 2000 nM | – | 50 to 1000 nM
Cc1cc(Nc2cc(NCC3(C)COC3)nc(Sc3ccc(NC(=O)c4ccccc4Cl)cc3)n2)[nH]n1 [Compound 208] | ≤ 1 nM | ≤ 10 nM | 30 to 200 nM | –
Cc1cc(Nc2cc(N3CC(F)(C4CC4)C3)nc(Nc3ccc4nc(C(F)(F)F)[nH]c4c3)n2)[nH]n1 [Compound 210] | 1 to 5 nM | 50 to 2000 nM | > 200 nM | –
